Measurements as given in PubChem BioAssay (NCI).
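Tested at 5 concentrations; 48 h exposure; 96-well plates; endpoints linearly interpolated, else capped at highest concentration. GI50 is the concentration that inhibits growth by half. TGI: total growth inhibition.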

What was measured:
Assay in all cases: NCI anticancer screen, dose series, 48 h
786-0 renal = tested on: 786-0 renal
MALME-3M melanoma = tested on: MALME-3M melanoma
NCI-H226 lung = tested on: NCI-H226 lung
NCI-H522 lung = tested on: NCI-H522 lung
OVCAR-8 ovarian = tested on: OVCAR-8 ovarian
SK-MEL-5 melanoma = tested on: SK-MEL-5 melanoma
SNB-19 CNS = tested on: SNB-19 CNS
SNB-75 CNS = tested on: SNB-75 CNS
NCI-H23 lung = tested on: NCI-H23 lung
RXF 393 renal = tested on: RXF 393 renal

Row | Structure (SMILES) | TGI (786-0 renal) [µM] | TGI (MALME-3M melanoma) [µM] | TGI (NCI-H226 lung) [µM] | TGI (NCI-H522 lung) [µM] | TGI (OVCAR-8 ovarian) [µM] | TGI (SK-MEL-5 melanoma) [µM] | TGI (SNB-19 CNS) [µM] | TGI (SNB-75 CNS) [µM] | TGI (NCI-H23 lung) [µM] | GI50 (786-0 renal) [µM] | GI50 (MALME-3M melanoma) [µM] | GI50 (NCI-H226 lung) [µM] | GI50 (NCI-H23 lung) [µM] | GI50 (NCI-H522 lung) [µM] | GI50 (OVCAR-8 ovarian) [µM] | GI50 (RXF 393 renal) [µM] | TGI (RXF 393 renal) [µM] | GI50 (SK-MEL-5 melanoma) [µM] | GI50 (SNB-19 CNS) [µM]
1 | N#CCCN(CCC#N)c1ccc(/C=C2\N=C(c3cc([N+](=O)[O-])ccc3Cl)OC2=O)cc1 | > 100 | > 100 | 44 | 27.6 | 37.7 | 33.4 | > 100 | > 100 |  |  |  |  |  |  |  |  |  |  | 
2 | CN/N=C(/Cc1occc(=O)c1O)C(=O)Nc1ccccc1C | > 100 | > 100 | > 100 | > 100 | > 100 | > 100 | > 100 |  | > 100 |  |  |  |  |  |  |  |  |  | 
3 | CN(C)CC[N+]1=Nc2cccc3cccc(c23)N1 | > 100 | > 100 | > 100 | > 95.7 | > 100 | > 100 | > 100 | > 100 | > 100 |  |  |  |  |  |  |  |  |  | 
4 | CC(=O)NNc1nc(C)c(C(=O)NNC(=O)C(=O)Nc2ccc(Cl)cc2)s1 | > 100 | > 100 | > 100 | > 100 | > 100 | > 100 | > 100 |  | > 100 |  |  |  |  |  |  |  |  |  | 
5 | COc1ccc(-c2nc3sccn3c2/C(N)=N/C(=N)N)cc1OC | > 100 | 32.9 | > 100 | > 100 | > 100 | 44.5 | > 100 |  | > 100 | 32.9 | 13.3 | 45.1 | > 100 | 7.85 | 43.8 | > 100 | > 100 | 21.3 | 35.3
6 | COc1cc(CNc2cnc3cc(N)cc(N)c3n2)cc(OC)c1 | 30 |  | 55.3 | 78.2 | 57.6 | 36.1 |  |  | 39.8 | 15.4 |  | 17.4 | 17.3 | 23.8 | 22.6 |  |  | 18.7 | 
7 | O=C1/C(=C/c2ccccc2)CN(C(=O)C(Cl)(Cl)Cl)C/C1=C\c1ccccc1 | 9.42 | 6.01 |  | 4.08 | 3.1 | 2.36 | 10.7 | 12.3 | 6.8 |  |  |  |  |  |  |  | 4.02 |  | 
8 | CCOC(=O)CN1C(=O)c2cccc3cc([N+](=O)[O-])cc(c23)C1=O | 26.3 | 5.23 | 23 |  | 3.43 | 25.5 | 32.3 | 22.2 | 4.52 |  |  |  |  |  |  |  | 3.89 |  | 
9 | COc1cc2c(cc1OC)-c1c3cc(O)ccc3nn[n+]1CC2 | > 100 |  | > 100 | > 100 | > 100 | > 100 | > 100 | > 100 | > 100 |  |  |  |  |  |  |  | > 100 |  | 
10 | CCCCOC(=O)C1OC(O[C@H]2CCC3(C)C(CCC4(C)C3CC=C3C5CC(C)(C)CCC5(C(=O)O)CC[C@]34C)C2(C)C)C(OC2OC(CO)C(O)C(O)C2O)C(OC2OC(CO)C(O)C(O)C2O)C1O (stereo partly specified) | 70.9 |  | 66.1 | > 100 | > 100 | > 100 | 53.6 |  | 47.6 | 26.2 |  | 29.2 | 22.8 | 43.9 | 66.8 | 58.5 | > 100 | 33.1 | 22.5
